Measurements from patent US9603896B2, “Peptide compounds and methods of production and use thereof” (priority 2012, dated 2017).
Square brackets hold non-standard residues; d marks the D form. Peptide text beside a SMILES is read from it. AEEA = NCCOCCOCC(=O)O

Key:
[1] = test system: TNF-α release from LPS-stimulated RAW264.7 cells; experiment: LPS neutralization: TNF-α release from LPS-stimulated RAW264.7 cells; type: cell-based, mouse; details: Pseudomonas LPS
Procedure: (§1) The well-characterized response of RAW264.7 macrophage cells was used to produce tumor necrosis-factor-alpha (TNF-α) in response to LPS to determine whether the peptides could dampen the release of this cytokine. […] Importantly, pre-treatment (3 hours prior to LPS addition) as well as post-treatment of the RAW264.7 cells (3 hours post LPS addition) with peptide dampened the cytokine release. […] The finding that the novel peptides bind and neutralize the effect of Pseudomonas LPS is of critical importance since this ensures that the novel therapeutic peptide compounds described herein will not only kill the bacteria, but will also neutralize the LPS endotoxin released by the bacteria which plays such an important role in the rapid progression of sepsis.
(§2) BCC01-5RMP (SEQ ID NO:21), BCC02-5RMP (SEQ ID NO:22), and BCC03-5RMP (SEQ ID NO:23) were tested for their ability to bind lipopolysaccharide (LPS) using the limulus amebocyte lysate method (LAL). […] There was no statistical difference in their ability to bind LPS using the LAL technique. The ability of the peptides to neutralize LPS was assessed by determining their ability to attenuate the release of tumor necrosis factor-alpha (TNF-α) from LPS-stimulated RAW264.7 cells (a mouse macrophage cell line). […] No significant differences were observed between the three peptides to neutralize LPS as measured by cytokine release.

[2] = test system: E. coli ATCC® strain 25922™; type: cell-based, Escherichia coli; design: Log reduction of E. coli: dose or concentration left out as unconfirmed; details: 25; starting inoculum 1×10^6 CFU/ml; 60 to 180 minute incubation
In short: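 Bactericidal assay: E. coli ATCC 25922 at a starting inoculum of 1×10^6 CFU/ml exposed to peptide for 60 to 180 min. Surviving CFU then counted, with activity expressed as log reduction in CFU/ml.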

[3] = LPS binding, Limulus Amebocyte Lysate (LAL) assay; design: species or system Pseudomonas
Procedure: as §1, §2

[4] = test system: P. aeruginosa (ATCC® 27853™); experiment: Pseudomonas keratitis model in the mouse eye; type: in vivo; details: C57/BL mice, topical, concentrations between 0.25 and 0.75 mg/ml
Procedure: A circular wound was created on the mouse cornea by removing the epithelium and infected with 10^5 colony forming units (CFU) of P. aeruginosa (ATCC® 27853™ (American Type Culture Collection, Manassas, Va.)). Infected wounds were treated with saline (0.9% sodium chloride, vehicle control) or saline containing indicated concentrations of peptide every 15 minutes for 2 hours, then every 30 minutes for 3 hours on the first day. Infected wounds were treated twice on the second day and once on the third day. Mice were killed at 48 hours post-infection, and CFU/eye were quantified. The means were plotted and are representative of 5 to 9 mice per group. Mann Whitney test was performed for each group as compared to the saline control group. *P=0.014.
A circular wound (2 mm) was created on the mouse cornea by removing the epithelium and infecting the wound with 10^5 CFU of P. aeruginosa (ATCC® 27853™ (American Type Culture Collection, Manassas, Va.)). Infected wounds were treated with saline or saline containing indicated concentrations of peptide every 15 minutes for 2 hours, then every 30 minutes for 3 hours on the first day. Infected wounds were treated twice on the second day and once on the third day. Mice were killed at 48 hours post-infection, and the colony forming units per eye (CFU/eye) were quantified. The means are plotted and are representative of 5 to 9 mice per group. Mann Whitney test was performed for each group as compared to the saline control group.
For FIGS. 15-17, in vivo bactericidal activity of the peptides was also investigated using the standard Pseudomonas keratitis model in the mouse eye (FIGS. 15-17). Peptides 120-146QR-5RMP (SEQ ID NO:32), 120-146WH (SEQ ID NO:31), and 120-146WR (SEQ ID NO: 30) were applied topically at doses of 2, 5, 10, and 20 mg/ml to the wounded cornea that had been infected with 10^5 CFU of Pseudomonas aeruginosa. The efficacies of the peptides were compared to treatment with the vehicle control. Mice were euthanized at 48 hours post infection, and the CFU/eye were quantified.

[5] = test system: Pseudomonas aeruginosa ATCC® 27853™; type: cell-based; design: Log reduction of Pseudomonas: dose or concentration left out as unconfirmed; details: starting inoculum 1×10^6 CFU/ml; 60 to 180 minute incubation
[6] = test system: Pseudomonas clinical isolate B64; experiment: BIOSCREEN C™ growth assay, antibiotic and peptide combinations; type: cell-based, Pseudomonas aeruginosa
Procedure: Cefotaxime (Cefo) and peptide combinations included a constant amount of Cefotaxime (2.81 μg/ml) with suboptimal amounts of peptide (0, 0.34, 1.01, and 3.04 μg/ml).
The peptide and antibiotics were set up in the wells of the microtiter plate at starting ratios of MIC equivalents of antibiotic:peptide at 3:1, 1:1, and 1:3. They were serially diluted to concentrations well below suboptimal/sublethal levels of the antibiotic and peptide. The organism was added (1×10^5 CFU/well), the BIOSCREEN C™ assay (Growth Systems USA, Piscataway, N.J.) was performed, and data was collected over 24 hours.

CC[C@H](C)[C@H](NC(=O)[C@H](CC(C)C)NC(=O)[C@H](C)NC(=O)CNC(=O)CNC(=O)[C@H](CO)NC(=O)[C@H](Cc1ccccc1)NC(=O)[C@H](Cc1c[nH]cn1)NC(=O)[C@H](CCCNC(=N)N)NC(=O)CNC(=O)[C@H](CCC(N)=O)NC(=O)[C@H](CC(N)=O)NC(=O)[C@H](CCCNC(=N)N)NC(=O)[C@H](CCCNC(=N)N)NC(=O)[C@H](CCCNC(=N)N)NC(=O)[C@H](CCCNC(=N)N)NC(=O)COCCOCCNC(=O)COCCOCCN)C(=O)N[C@@H](Cc1c[nH]cn1)C(=O)N[C@@H](C)C(=O)N[C@@H](CCCNC(=N)N)C(=O)N[C@@H](Cc1ccccc1)C(=O)N[C@H](C(=O)N[C@@H](CCSC)C(=O)N[C@H](C(=O)N[C@@H](C)C(=O)N[C@@H](C)C(=O)N[C@@H](CO)C(=O)N[C@@H](CS)C(=O)N[C@@H](Cc1ccccc1)C(=O)N[C@@H](CCC(N)=O)C(=O)N[C@@H](CCCNC(=N)N)C(=O)O)[C@@H](C)O)C(C)C [BCC02-5RMP] (H-[AEEA][AEEA]RRRRNQGRHFSGGALIHARFVMTAASCFQR-OH)
neutralization of LPS: release of TNF-α [1]: attenuate the release of TNF-α
Log reduction of E. coli [2]: 4
binding of Pseudomonas LPS [3]: bound Pseudomonas LPS
bacteria in the eye (CFU/eye) at 48 hours post-infection [4]: effectively killed all bacteria and cured the infection
Log reduction of Pseudomonas [5]: 4
sensitivity of the bacterium to Cefotaxime on addition of peptide ([6]; 3.04 μg/ml of peptide plus Cefotaxime 2.81 μg/ml, P=0.0143): now sensitive
effect of peptide on the killing effect of Cefotaxime ([6]; 0.34 and 1.0 μg/ml of peptide plus Cefotaxime 2.81 μg/ml): no statistical effect
